# Key:
# MCF-7 cells = assay: Combination index / drug interaction (CompuSyn, Chou-Talalay), MCF-7; assay type: cell-based, human
# Protocol: IC50 values were calculated using GraphPad Prism software.
# According to the theory of T. C.
# gliomas = details: cited from earlier work
# [1] = weekly doses of 20 mg/m^2; cited from earlier work
# U-87 μMG cells = assay: MTT cytotoxicity assay, U-87 μMG; details: Homo sapiens, U-87 MG, read-out: U-87 μMG cell survival
# Protocol: Glimepiride and its analogs were first prepared as a stock solution in DMSO, and then the drugs were dissolved fresh in culture medium enriched with Tween 80 (final concentration 0.05%).
# Human cancer cells (MCF-7, A549 and U-87 μMG) and normal endothelial cells (HMEC-1) were obtained from American Type Cell Culture (Rockville, MD). The cancer cell lines (MCF-7, A549 and U-87 μMG) were cultured as monolayers in Dulbecco's modified Eagle's medium supplemented with 10% (v/v) fetal bovine serum and 1% (v/v) penicillin/streptomycin mixture (10,000 U/mL penicillin and 10 mg/mL streptomycin) in a 100% humidified atmosphere of 5% CO2 and 95% air at 37 °C. […]
# The cytotoxic activity of the test compounds against cancer cell lines was tested using the standard MTT (3-(4,5-dimethylthiazol-2-yl)-2,5-diphenyltetrazolium bromide) colorimetric assay. […] Plates were gently shaken at room temperature until the formazan was completely dissolved and read at 540 nm using a microplate reader. With the XTT method, there is no dissolution step in DMSO (XTT is reduced to a highly water-soluble, orange product instead of the insoluble formazan), and the plate is read at 450 nm. […] IC50 values were calculated using GraphPad Prism software. […]
# All data are expressed as mean±standard deviation (SD) and presented as a percentage of control (untreated cells) taken as 100%, n=3 (or more). […]
# MDA-MB-231 cells = details: Glibenclamide alone; inhibiting the G1-S phase progression without inducing cell death or differentiation; cited from earlier work
# [2] = analog 100-500 μM with Doxorubicin 0.225-0.900 μM, over a wide range of dose combinations
compound,measurement,setting,value
"CCCNC(=O)NS(=O)(=O)c1ccc(Cl)cc1 [Chlorpropamide, 1-(4-chlorophenyl) sulfonyl-3-propylurea]",drug interaction with Doxorubicin,MCF-7 cells; [2],strong or very strong synergy
"COc1cccc2c1C(=O)c1c(O)c3c(c(O)c1C2=O)C[C@@](O)(C(=O)CO)C[C@@H]3O[C@H]1C[C@H](N)[C@H](O)[C@H](C)O1 [Doxorubicin, (7S,9S)-7-[(2R,4S,5S,6S)-4-amino-5-hydroxy-6 methyloxan-2-yl]oxy-6,9,11-trihydroxy-9-(2-hydroxyacetyl)-4-methoxy-8,10-dihydro-7H tetracene-5,12-dione]",clinical results vs systemic administration,"gliomas; intracerebral administration, stage III or IV gliomas, Ommaya reservoir",Significantly better results
same,"clinical efficacy in certain brain tumors, such as gliomas",gliomas; systemic administration,very limited efficacy
same,neurotoxicity,gliomas; very high systemic doses,highly neurotoxic
same,incidence of congestive heart failure,[1],lower incidence of congestive heart failure
same,viability at 0.52 µM,U-87 μMG cells,75.6%
"Cc1ccc(S(=O)(=O)NC(=O)NN2CC3CCCC3C2)cc1 (stereo not drawn) [Gliclazide, 1-(3,3a,4,5,6,6a-hexahydro-1H-cyclopenta[c]pyrrol-2-yl)-3-(4-methylphenyl) sulfonylurea]",drug interaction with Doxorubicin,MCF-7 cells; [2],strong or very strong synergy
COc1ccc2c(c1)C(=O)N(CCc1ccc(S(=O)(=O)NC(=O)NC3CCCCC3)cc1)C(=O)C2(C)C [Gliquidone],drug interaction with Doxorubicin,MCF-7 cells; 100 μM analog in combination with Doxorubicin (0.225-0.900 μM),additive effect or slight antagonism
same,drug interaction with Doxorubicin,"MCF-7 cells; Gliquidone with Doxorubicin, dose combinations other than 100 μM",synergistic effects
COc1ccc(Cl)cc1C(=O)NCCc1ccc(S(=O)(=O)NC(=O)NC2CCCCC2)cc1 [Glyburide],drug interaction with Doxorubicin,MCF-7 cells; [2],strong or very strong synergy
same,effect in MDA-MB-231 cells,MDA-MB-231 cells,cytostatic effect
"Cc1ccc(S(=O)(=O)NC(=O)NN2CCCCCC2)cc1 [Tolazamide, 1-(azepan-1-yl)-3-(4-methylphenyl) sulfonylurea]",drug interaction with Doxorubicin,MCF-7 cells; [2],strong or very strong synergy

# Reference: patent publication US20260373169A1, “SYNERGISTIC COMBINATION FOR THE TREATMENT OF CANCER” (FUNDACIÓN UNIVERSITARIA SAN ANTONIO (UCAM), priority 2023, published 2026)
